The values that follow come from patent US11357809B2, “Herbal preparation for stimulation of hair growth, control of hair fall, dandruff and infections thereof using Ageratum spp” (GE Nutrients, Inc., priority 2019, dated 2022).

Values joined by “and” are separate entries in the source; they are usually repeats but may differ in a detail not shown here. Equal values may be shown once.

The subject of one data set is 5-alpha-reductase enzyme. As to conditions: constituents of Ageratum spp. extracts; no test described; cited from earlier work.
Another data set has as its system bovine corneas. Put plainly: Bovine Corneal Opacity and Permeability assay (ocular irritation). The source says:
SUMMARY: This test was designed to assess the ocular irritation potential of a non-surfactant, liquid article such as Ageratum conyzoides extract. The test is a modification of that described by Gautheron, et. al. (“Bovine Corneal Opacity and Permeability Test: An In Vitro Assay of Ocular Irritancy” Fund. Appl. Toxicol. 18:442-449 (1992)), and Vanparys, et al. (“Evaluation of the bovine opacity-permeability assay as an in vitro alternative to the Draize eye irritation test” Toxicol. In Vitro 7:471-76 (1994)).
Bovine eyes were obtained by this facility from a local abattoir. The eyes were transported in an appropriate container containing Hank's balanced salt solution (HBSS, Sigma Chemical Co., H-1387). Transportation and storage of the eyes was at approximately 21° C. (70° F.). The eyes were used the day of their harvest and transport.
Upon test initiation, the iris and the lens were removed and the corneas were placed in the bovine cornea holders. The endothelial surface was applied to the O-ring of the posterior part of the holder. The anterior part of the holder was placed against the epithelial side of the cornea. The two sides of the holder were screwed together. The bovine holders' components were then filled with pre-warmed Eagle's Minimum Essential Media (EM EM, Sigma Chemical Co., M-3024) with 1% Fetal Bovine Serum (FBS, American Type Culture Collection) at approximately 32° C.±2° C. (90° F.±4° F.). The posterior chamber was filled first. The corneas were incubated for approximately one hour, in a 32° C.±2° C. (90° F.±4° F.) water bath. This allowed for the pre-equilibration of the corneas to the external medium.
After the pre-equilibration period, media from both of the chamber of the cassettes was aspirated, with the anterior chamber being aspirated first. Each chamber was then refilled with fresh EMEM, with the posterior chamber being filled first. Initial opacity readings were taken and recorded. Corneas with initial readings greater than […] were not used. Three corneas were assigned to each test and control article. The corneas with the lowest readings were used as the negative controls.
The test article and the positive control article (ethanol) and the negative control article (physiological saline) were each tested at 100%.
A volume of 0.75 milliliters of the appropriate article, pre-warmed to 32° C.±2° C. (90° F.±4° F.), was introduced into the anterior chamber of the appropriate cassettes. The anterior chambers were then plugged and turned to a horizontal position. They were then rotated slightly, so that the article uniformly covered each cornea. The cassettes were incubated for 10 minutes at 32° C.±2° C. (90° F.±4° F.), in a water bath.
The anterior chambers of each cassette were then refilled with fresh EMEM via syringe. After refilling, the chambers were again plugged. All corneas were then incubated for 2 hours at approximately 32° C.±2° C. (90° F.±4° F.), in a water bath.
After this 2 hour incubation period, all compartments were emptied and refilled with fresh EMEM. Each holder was individually placed in the “positive” compartment, while the “negative” compartment was left empty. The glass portion of each holder was dried prior to the reading. The opacity of each cornea was taken and recorded. The corneas were also observed grossly. Any unusual findings, such as opaque spots, were recorded.
After the opacity readings were completed, the medium was removed from the anterior chambers. Either a suitable pipette tip or a flat ended needle was used for this procedure. One milliliter of 6 mg/ml fluorescein (Sodium Fluorescein, Sigma-Aldrich, F-637 in Dulbecco's Phosphate Buffered Saline (DPBS Sigma-Aldrich) pH approximately 7.5) solution was added to each of the anterior chambers. A micro pipette was used for this procedure.
After the fluorescein solution was added to each anterior compartment, the compartments were plugged. The cassettes were then incubated, in a horizontal position, for 90 minutes at 32° C.±2° C.

Setting [1] is: individual cornea, negative control average subtracted.
[2] abbreviates: mean of three corneas, article at 100%.

On to `CCCCC/C=C\C/C=C\CCCCCCCC(=O)O` [9,12-octadecadienoic acid (Z,Z)-], for which, in the data set with 5-alpha-reductase enzyme, the “identified as 5-alpha-reductase inhibitor” value is listed as 5-alpha-reductase inhibitors.
As to `CC/C=C\C/C=C\C/C=C\CCCCCCCC(=O)O` [Alpha-linolenic acid], the “identified as 5-alpha-reductase inhibitor” value in the data set with 5-alpha-reductase enzyme is reported as 5-alpha-reductase inhibitors.
In the case of `O=C1CCc2ccccc2O1` [Hydrocoumarin], the “identified as 5-alpha-reductase inhibitor” value in the data set with 5-alpha-reductase enzyme is listed as 5-alpha-reductase inhibitors.
For `CCCCCCCCCCCCCCCC(=O)O` [Hexadecanoic acid], in the data set with 5-alpha-reductase enzyme, the “identified as 5-alpha-reductase inhibitor” value is reported as 5-alpha-reductase inhibitors.
For the compound `CCO` [+Control, Ethanol], the “Difference (terminal minus initial opacity)” value in the data set on bovine corneas (individual cornea, article at 100%) was 51 and 45 and 54. Moreover, the “Terminal Opacity” value with bovine corneas (individual cornea, article at 100%, 10 minute exposure, 2 hour incubation) is 56 and 46 and 55. For the same compound, in the data set with bovine corneas (individual cornea, baseline reading before exposure), the “Initial Opacity” value was 2 and 1 (2×). The “Optical Density490” value in the data set on bovine corneas (individual cornea, fluorescein permeability, 90 minutes) was 1.239 and 0.662 and 1.663. In the data set on bovine corneas (setting [1]), the “Corrected Corneal Opacity” value is 48.3 and 42.3 and 51.3; the “Corrected OD490” value was 1.233 and 0.656 and 1.657. For the same compound, the “In Vitro Score” value with bovine corneas (individual cornea, Corrected Corneal Opacity + 15 x Corrected OD490) is 65.8 and 52.5 and 76.2. In addition, the “Mean Corrected OD490” value with bovine corneas (mean of three corneas) amounted to 1.182. Also, in the data set on bovine corneas (setting [2]), the “Average In Vitro Score” value is recorded as 65.0 and the “Mean Corrected Corneal Opacity” value was 47.3.
